# From PubChem BioAssay (NCI)
# Several values for one entry are separate records, joined by “and”; a condition that tells them apart may be missing. Equal values may be shown once.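 How tested: cells in 96-well plates exposed to compound for 48 hours at five concentrations. The concentration for 50% growth inhibition is given as GI50. The concentration for full growth arrest is given as TGI.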
# Key:
# Experiment in all cases: NCI-60 cell line screen, 48 h
# HL-60(TB) leukemia = test system: HL-60(TB) leukemia
# SK-MEL-28 melanoma = test system: SK-MEL-28 melanoma
# U251 CNS = test system: U251 CNS
# MDA-MB-435 = test system: MDA-MB-435
# UACC-62 melanoma = test system: UACC-62 melanoma
# NCI-H522 lung = test system: NCI-H522 lung
# RPMI-8226 leukemia = test system: RPMI-8226 leukemia
# OVCAR-5 ovarian = test system: OVCAR-5 ovarian
# SF-268 CNS = test system: SF-268 CNS
# COLO 205 colon = test system: COLO 205 colon
Structure (SMILES),GI50 (HL-60(TB) leukemia),TGI (HL-60(TB) leukemia),GI50 (SK-MEL-28 melanoma),TGI (SK-MEL-28 melanoma),GI50 (U251 CNS),TGI (U251 CNS),GI50 (MDA-MB-435),TGI (MDA-MB-435),GI50 (UACC-62 melanoma),TGI (UACC-62 melanoma),GI50 (NCI-H522 lung),TGI (NCI-H522 lung),GI50 (RPMI-8226 leukemia),TGI (RPMI-8226 leukemia),GI50 (OVCAR-5 ovarian),TGI (OVCAR-5 ovarian),GI50 (SF-268 CNS),TGI (SF-268 CNS),GI50 (COLO 205 colon),TGI (COLO 205 colon)
CN1CCN(c2nc(NCCNc3ccnc4cc(Cl)ccc34)c3ccccc3n2)CC1,1740 nM,3.5 µM,1830 nM,3.39 µM,2.3 µM,10.1 µM,1850 nM,3.61 µM,1820 nM,3.39 µM,1640 nM,3.8 µM,1710 nM,4.26 µM,3.35 µM,13.3 µM,2.72 µM,13.1 µM,974 nM,2.33 µM
COc1ccc(-c2ccc(/C=N/n3cnn(CN4CCN(C)CC4)c3=S)o2)c([N+](=O)[O-])c1,17700 nM,49.9 µM,44500 nM,> 100 µM,23.5 µM,65.7 µM,30400 nM,63.1 µM,16100 nM,40 µM,45000 nM,> 100 µM,21900 nM,54.2 µM,34 µM,> 100 µM,23.6 µM,69.5 µM,52800 nM,> 100 µM
N#CC1=C(N)Oc2c(sc3c(F)cccc23)C1c1ccc(Cl)cc1 (configuration not stated),2690 nM,8.3 µM,5860 nM,28.2 µM,3.13 µM,11.6 µM,616 nM,2.7 µM,3260 nM,17.5 µM,1930 nM,11.7 µM,2910 nM,12.8 µM,10.2 µM,34 µM,4.32 µM,31.2 µM,2310 nM,6.15 µM
CC(=N\O)/C(C)=N/O.CC(=N\O)/C(C)=N/O.[Pd],4000 nM,> 10 µM,3870 nM,9.48 µM,5.12 µM,> 10 µM,2640 nM,5.43 µM,2110 nM,5.75 µM,2080 nM,5.03 µM,7390 nM,> 10 µM,6.47 µM,> 10 µM,6.95 µM,> 10 µM,3840 nM,> 10 µM
O=C(CCCCCn1c2ccccc2c2c3c(c4c5ccccc5[nH]c4c21)C(=O)N(O)C3=O)N1CCOCC1,2010 nM,5.45 µM,2320 nM,5.4 µM,2.26 µM,5.59 µM,2250 nM,5.58 µM,2050 nM,5.4 µM,1380 nM,3.14 µM,1970 nM,5.43 µM,3.49 µM,> 100 µM,–,–,2300 nM,5.65 µM
CCCCCCCC(=O)SCC/C=C/[C@@H]1CC(=O)NCc2cccc(n2)CN(Cc2ccc(Cl)cc2)CC(=O)N[C@@H](C(C)C)C(=O)O1,23100 nM,> 100 µM,5040 nM,> 100 µM,12.6 µM,35.8 µM,6060 nM,> 100 µM,5850 nM,26.5 µM,6820 nM,54.1 µM,46400 nM,> 100 µM,9.98 µM,> 100 µM,20 µM,> 100 µM,17600 nM,42.9 µM
COc1ccc(OC)c(-c2cc(-c3ccc(Cl)cc3)nn2-c2ccc(S(N)(=O)=O)cc2)c1,14300 nM,> 100 µM,–,–,–,–,18200 nM,43.9 µM,2980 nM,12.1 µM,7990 nM,45.3 µM,1720 nM,3.72 µM,12.8 µM,28.7 µM,13.9 µM,32.9 µM,–,–
NS(=O)(=O)OC[C@H]1O[C@@H](n2cnc3c(N[C@H]4CCc5ccccc54)ncnc32)[C@H](O)[C@@H]1O,48.2 nM,1.44 µM,47 nM,0.276 µM,0.0353 µM,0.121 µM,114 nM,0.351 µM,45.1 nM,0.374 µM,27.1 nM,0.192 µM,3360 nM,28.1 µM,0.305 µM,2.24 µM,0.122 µM,0.449 µM,43 nM,0.22 µM
COc1ccc2c(c1)Cc1cc(N=[N+]([O-])c3ccc4c(c3)Cc3cc(OC)ccc3-4)ccc1-2,–,> 100 µM,–,> 100 µM,–,30.8 µM,–,> 100 µM,–,85.4 µM,–,30.3 µM,–,–,–,> 100 µM,–,> 100 µM,–,28.6 µM
Cc1cc(CC(O)(C(F)(F)F)C(F)(F)F)cc(CC(O)(C(F)(F)F)C(F)(F)F)n1,–,7.85 µM,–,9.54 µM,–,11.9 µM,–,8.26 µM,–,12.5 µM,–,6.35 µM,–,5.96 µM,–,19.2 µM,–,10.1 µM,–,3.33 µM
COc1cc(C2C3=C(COC3=O)N(CCO)c3cc4c(cc32)OCCO4)cc(OC)c1O (configuration not stated),1520 nM,> 13.5 µM,1150 nM,> 50 µM,2 µM,> 50 µM,331 nM,1.71 µM,961 nM,> 50 µM,182 nM,2.8 µM,2180 nM,> 50 µM,49.9 µM,> 50 µM,3.38 µM,> 50 µM,1670 nM,12 µM
C=CC[n+]1c(/C=C2\Sc3ccccc3N2C)sc(-c2ccccc2)c1-c1ccccc1,241 nM,0.665 µM,421 nM,7.72 µM,0.315 µM,12.4 µM,335 nM,1.68 µM,–,–,220 nM,0.76 µM,250 nM,0.987 µM,0.383 µM,12.6 µM,0.405 µM,15.6 µM,249 nM,0.658 µM
CC(C)n1c2c(c3ccccc3c1=O)C(=O)c1ccccc1-2,–,> 100 µM,–,> 100 µM,–,> 100 µM,–,> 100 µM,–,> 100 µM,–,> 100 µM,–,> 100 µM,–,> 100 µM,–,> 100 µM,–,> 100 µM
O=C1/C(=C/c2ccc(F)cc2)CN(Cc2cn(CCNc3ccnc4cc(Cl)ccc34)nn2)C/C1=C\c1ccc(F)cc1,1410 nM,4.97 µM,1740 nM,3.13 µM,1.33 µM,2.68 µM,1410 nM,2.73 µM,1560 nM,2.95 µM,1670 nM,3.16 µM,299 nM,0.896 µM,1.92 µM,3.71 µM,1.52 µM,2.91 µM,1500 nM,2.88 µM
Nc1ncnc2c1ncn2C1OC(CO)C(O)C1O (configuration not stated),22900 nM and 105000 nM and 13800 nM,> 100 µM and 328 µM and 56 µM,> 100000 nM and 313000 nM and 62300 nM,> 450 µM,> 100 µM and 273 µM and 30.6 µM,> 450 µM,38800 nM,> 100 µM,> 100000 nM and 247000 nM and 27200 nM,> 450 µM,–,> 295 µM,–,> 100 µM and > 450 µM and 60.8 µM,> 100 µM and 257 µM and 34.6 µM,> 450 µM,38.7 µM,> 450 µM,> 100000 nM and > 450000 nM and 60300 nM,> 450 µM
N=C(N)c1ccc(-c2ccc(-c3ccco3)o2)cc1,2190 nM,5.53 µM,2310 nM,6.22 µM,2.92 µM,11.8 µM,1830 nM,4.03 µM,1820 nM,3.9 µM,3730 nM,14.6 µM,2510 nM,7.52 µM,4.98 µM,18.8 µM,4.85 µM,18.7 µM,1780 nM,3.48 µM
COc1ccc(CNCCN2C(=O)c3ccc4c5c(ccc(c35)C2=O)C(=O)N(CCNCc2ccc(OC)cc2)C4=O)cc1,311 nM,0.858 µM,1210 nM,2.56 µM,0.199 µM,0.48 µM,189 nM,0.375 µM,392 nM,1.5 µM,413 nM,1.92 µM,487 nM,3.14 µM,0.428 µM,1.89 µM,0.284 µM,1.17 µM,137 nM,0.281 µM
CCCCC#Cc1c(I)n(C2OC(CO[Si](C)(C)C(C)(C)C)C3OC(C)(C)OC32)c(=O)[nH]c1=O (configuration not stated),1520 nM,4.14 µM,1840 nM,4.3 µM,21.9 µM,> 100 µM,14600 nM,29.8 µM,11800 nM,24 µM,534 nM,1.95 µM,2170 nM,5.28 µM,14.4 µM,27.9 µM,10.3 µM,22.4 µM,–,–
CC(C)=CCNc1ncnc2c1ncn2C1OC(COP(=O)(O)O)C(O)C1O (configuration not stated),1940 nM,6.33 µM,> 100000 nM,> 100 µM,> 100 µM,> 100 µM,6680 nM,> 100 µM,9030 nM,> 100 µM,4800 nM,89.4 µM,42800 nM,> 100 µM,32.9 µM,> 100 µM,8.77 µM,> 100 µM,4590 nM,> 58.8 µM
COc1ccc(C2CC(c3cccc(Nc4ccnc5cc(Cl)ccc45)c3)=NN2c2ccccc2)cc1 (configuration not stated),282 nM,17.5 µM,4410 nM,32.5 µM,–,–,219 nM,2.92 µM,51 nM,11.7 µM,952 nM,13.8 µM,1270 nM,22.8 µM,11.8 µM,61.7 µM,4.19 µM,> 100 µM,1430 nM,8.66 µM
Oc1ccc(Br)cc1CN1CCN(Cc2ccc(Cl)cc2)CC1,22800 nM,66.5 µM,24000 nM,> 100 µM,27.7 µM,> 100 µM,20800 nM,90.4 µM,17600 nM,> 100 µM,13300 nM,39.2 µM,14400 nM,> 100 µM,21.2 µM,75.2 µM,31.5 µM,> 100 µM,21700 nM,51.1 µM
COc1ccc(-n2cc(-c3ccc(Cl)cc3)[nH]c2=S)cc1Cl,> 100000 nM,> 100 µM,36500 nM,> 100 µM,32.3 µM,> 100 µM,> 100000 nM,> 100 µM,83500 nM,> 100 µM,59400 nM,> 100 µM,55300 nM,> 100 µM,> 100 µM,> 100 µM,28 µM,76.5 µM,> 100000 nM,> 100 µM
COc1ccc(/C(C#N)=C/c2nc3c(N4CCOCC4)nc(Cl)nc3n2C)cc1OC,< 10 nM,< 0.0112 µM,1100 nM,2.43 µM,< 0.01 µM,1.51 µM,< 10 nM,< 0.01 µM,< 10 nM,1.68 µM,< 10 nM,1.28 µM,< 10 nM,0.315 µM,< 0.0171 µM,2.32 µM,0.0173 µM,2.23 µM,17.2 nM,0.0424 µM
COC1=CC(=O)c2c(O)c3c(c(O)c2C1=O)CC(C)(O)OC3 (configuration not stated),–,24.2 µM,–,31.5 µM,–,10.5 µM,–,3.05 µM,–,7.35 µM,–,7.24 µM,–,> 76.8 µM,–,14.6 µM,–,> 100 µM,–,4.76 µM
O=C1CCc2cc([N+](=O)[O-])ccc2O1,–,> 100 µM,–,> 100 µM,–,> 100 µM,–,> 100 µM,–,> 100 µM,–,> 100 µM,–,> 100 µM,–,> 100 µM,–,> 100 µM,–,> 100 µM
CCSc1sc(-c2ccc(C)cc2)nc1[P+](c1ccccc1)(c1ccccc1)c1ccccc1,206 nM,0.542 µM,532 nM,1.82 µM,–,–,268 nM,0.801 µM,292 nM,1.24 µM,304 nM,1.23 µM,130 nM,0.477 µM,0.376 µM,1.56 µM,0.328 µM,1.43 µM,–,–
N#CC1=C(N)NC(=S)NC1c1ccc(-c2ccc(-c3nc4ccccc4s3)cc2)o1 (configuration not stated),30700 nM,> 50 µM,–,–,11.8 µM,32.2 µM,39100 nM,> 50 µM,16100 nM,> 50 µM,40300 nM,> 50 µM,32800 nM,> 50 µM,> 50 µM,> 50 µM,28.9 µM,> 50 µM,17400 nM,> 50 µM
